For one experiment, the target named is tau (Homo sapiens, UniProt P10636). In words: displacement tau binding assay in AD brain homogenates with [^3H]-6. To be noted: Table 1, displacement of [^3H]-6 (0.25 nM). On the procedure: The frozen human brain samples of Alzheimer's disease (AD) were purchased from Analytic Biological Services Inc. They were postmortem tissue from donors with clinical diagnosis of AD. As much of the white matter was dissected out of the frontal cortex in order to enrich the tissue preparations for gray matter. Brain homogenates of gray matter enriched frontal cortex were prepared by homogenizing the tissue in ice cold Phosphate Buffered Saline (PBS), pH 7.4 at 80 mg wet weight tissue per 1 mL for 45 seconds at 4° C. on setting 16 of Polytron. The homogenate was further diluted with ice cold PBS to 30 mg wet weight tissue per 1 mL and homogenized for an additional minute as described above. Homogenates were aliquoted in 5 ml/tube and store at −70° C. until use. […] Brain homogenates were diluted to 0.5 mg/mL from original 30 mg/mL volume in Assay Buffer, and 200 μl were added to the assay plate for a final concentration of 100 μg wet weight/assay tube. [^3H]-6 was prepared at […] final concentration in Assay Buffer plus 20% DMSO and 25 μl was added to the assay plate for final assay concentration of 0.25 nM. The assay plate was incubated at room temperature (25° C.) for 90 minutes. […] Filter plates were dried for 1 hour in a vacuum oven and 50 μl/well MicroScint-20 were added. Plates were counted 1 min per well by Packard Topcount. Total amount of radioligand used in the assay was determined by counting 25 μl of 10× ligand stock. […] Tau Ki data for representative compounds of the invention are found in Table 1.
tau, sequence (P10636 2-758 limits assumed): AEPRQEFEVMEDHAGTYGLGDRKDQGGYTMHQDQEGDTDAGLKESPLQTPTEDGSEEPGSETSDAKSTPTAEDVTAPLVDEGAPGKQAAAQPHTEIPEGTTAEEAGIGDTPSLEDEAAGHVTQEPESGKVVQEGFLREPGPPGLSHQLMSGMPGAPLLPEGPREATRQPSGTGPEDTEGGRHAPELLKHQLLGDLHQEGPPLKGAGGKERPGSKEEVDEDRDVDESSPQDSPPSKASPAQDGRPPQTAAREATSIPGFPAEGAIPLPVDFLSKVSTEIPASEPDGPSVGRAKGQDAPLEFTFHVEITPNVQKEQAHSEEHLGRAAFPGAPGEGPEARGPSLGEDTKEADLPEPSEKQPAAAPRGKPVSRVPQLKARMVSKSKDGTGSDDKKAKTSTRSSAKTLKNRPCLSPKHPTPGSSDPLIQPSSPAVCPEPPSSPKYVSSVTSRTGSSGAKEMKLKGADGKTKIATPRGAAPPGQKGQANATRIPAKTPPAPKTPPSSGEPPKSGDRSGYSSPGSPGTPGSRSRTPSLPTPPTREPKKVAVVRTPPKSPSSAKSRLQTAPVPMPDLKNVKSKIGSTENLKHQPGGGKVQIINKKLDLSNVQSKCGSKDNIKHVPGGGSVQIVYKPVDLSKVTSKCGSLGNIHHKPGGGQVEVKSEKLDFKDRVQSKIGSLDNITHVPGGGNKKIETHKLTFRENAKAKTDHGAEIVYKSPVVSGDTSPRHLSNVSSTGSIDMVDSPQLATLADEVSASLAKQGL
With `Fc1ccc2cnc(-n3ccc4ccncc43)cc2c1` [Compound 9, 6-fluoro-3-(1H-pyrrolo[2,3-c]pyridin-1-yl)isoquinoline], the Ki was found to be 0.22 nM.

The compound `CC#Cc1cnc(-n2ccc3ccncc32)cc1CF` [Compound 21, 1-(4-(fluoromethyl)-5-(prop-1-ynyl)pyridin-2-yl)-1H-pyrrolo[2,3-c]pyridine] gave an inhibition constant (Ki) of 4.1 nM. This Ki lies about 19-fold higher than the previous one.

In turn, `c1cc2ccn(-c3cc4c(cn3)CCCN4)c2cn1` [Compound 39, 7-(1H-pyrrolo[2,3-c]pyridin-1-yl)-1,2,3,4-tetrahydro-1,6-naphthyridine] had a Ki of 10.8 nM.

On to `COc1ccc2cc(-n3ccc4ccncc43)ncc2c1` [Compound 13, 7-methoxy-3-(1H-pyrrolo[2,3-c]pyridin-1-yl)isoquinoline], for which the Ki was 0.29 nM.

The compound `Oc1ccc2cc(-n3ccc4ccncc43)ncc2c1` [Compound 15, 3-(1H-pyrrolo[2,3-c]pyridin-1-yl)isoquinolin-7-ol] returned an inhibition constant (Ki) of 0.53 nM.

`Fc1nccc2cnc(-n3ccc4ccncc43)cc12` [Compound 25, 1-fluoro-7-(1H-pyrrolo[2,3-c]pyridin-1-yl)-2,6-naphthyridine]: the Ki worked out at 14.1 nM.

With `FCOc1ccc2cnc(-n3ccc4ccncc43)cc2c1` [Compound 57], the affinity corresponds to a Ki of 1.23 nM.

Consider `COc1cccc2cc(-n3ccc4ccncc43)ncc12` [Compound 103], for which the inhibition constant Ki is 0.32 nM. This Ki lies about 3.8-fold lower than the previous one.

As to `FCCOc1ccc2cc(-n3ccc4ccncc43)ncc2c1` [Compound 16, 7-(2-fluoroethoxy)-3-(1H-pyrrolo[2,3-c]pyridin-1-yl)isoquinoline], the Ki was determined as 0.41 nM. This Ki and that of the compound before are within 1.5-fold of each other.

`c1cnc(-c2ccc(-n3ccc4ccncc43)nc2)cn1` [Compound 64]: the affinity, expressed as Ki, was 3.17 nM.

In turn, `Fc1nc(-n2ccc3ccncc32)ccc1-c1cccnc1` [Compound 37, 1-(2-fluoro-3,3′-bipyridin-6-yl)-1H-pyrrolo[2,3-c]pyridine] registered a Ki of 19.7 nM.

The experiment is the same for the next values; noted with them: Table 2, displacement of [^3H]-6 (0.25 nM).
Compound `Nc1cc(F)c2cc(-n3ccc4ccncc43)ncc2c1` [Compound 114] came in with a Ki of 0.494 nM.

Regarding `Nc1cc(F)cc2cnc(-n3ccc4ccncc43)cc12` [Compound 115], affinity was put at a Ki of 0.224 nM.

Compound `Nc1ccc(I)c2cnc(-n3ccc4ccncc43)cc12` [Compound 123] returned an inhibition constant (Ki) of 208 nM.

Usually Ki stands for a dissociation constant, usually derived from enzyme kinetics or from competition with a known ligand. Lower therefore signals higher affinity.
